Source: patent US20250353891A1 (MEDIMMUNE LIMITED, priority 2022, published 2025)
Starred links: 1 amine or outer side, 2 acyl side, 3 side chain; linkers in the order of their positions; H or OH if unused. Non-standard residues stand in square brackets, D forms with d. Residues, ends and D or L forms follow the SMILES beside them. Groups on a side chain read outwards from the residue. *: point of attachment. C20 diacid = O=C(O)CCCCCCCCCCCCCCCCCCC(=O)*; γGlu = O=C(O)[C@H](CCC(=O)[*:2])N[*:1]; αMeF = C[C@](N)(Cc1ccccc1)C(=O)O; AEEA = NCCOCCOCC(=O)O; Aib = CC(C)(N)C(=O)O

What was measured:
[1] = target: human GLP-1 receptor (hGLP-1R) (Homo sapiens, UniProt P43220); test: cAMP production (HTRF) in CHO cells expressing hGLP-1R; type: cell-based; design: expressed in transfected cells; settings: for EC50: Table 6, peptides modified at position 17, cAMP in CHO hGLP-1R cells, geometric mean, read-out: hGLP-1R EC50; for % Relative Potency Ratio: Table 6, % GLP-1R activity relative to GLP-1 / % GlucR activity relative to glucagon
Outline: (§1)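 Cells were resuspended in assay buffer at batch-optimized density, typically 1×10^5 cells/mL for hGLP-1R and 2×10^5 cells/mL for hGCGR. After 30 min incubation at room temperature with compound, cAMP was measured by two-step HTRF. EC50 values came from 4-parameter logistic fits of % Delta F.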

[2] = target: human glucagon receptor (hGCGR) (Homo sapiens, UniProt P47871); test: cAMP production (HTRF) in CHO cells expressing hGCGR; type: cell-based; design: expressed in transfected cells; settings: Table 6, peptides modified at position 17; cAMP in CHO hGCGR cells; geometric mean; read-out: hGluc-R EC50
Outline: as §1

Sequence of human glucagon receptor (hGCGR) (P47871 26-477): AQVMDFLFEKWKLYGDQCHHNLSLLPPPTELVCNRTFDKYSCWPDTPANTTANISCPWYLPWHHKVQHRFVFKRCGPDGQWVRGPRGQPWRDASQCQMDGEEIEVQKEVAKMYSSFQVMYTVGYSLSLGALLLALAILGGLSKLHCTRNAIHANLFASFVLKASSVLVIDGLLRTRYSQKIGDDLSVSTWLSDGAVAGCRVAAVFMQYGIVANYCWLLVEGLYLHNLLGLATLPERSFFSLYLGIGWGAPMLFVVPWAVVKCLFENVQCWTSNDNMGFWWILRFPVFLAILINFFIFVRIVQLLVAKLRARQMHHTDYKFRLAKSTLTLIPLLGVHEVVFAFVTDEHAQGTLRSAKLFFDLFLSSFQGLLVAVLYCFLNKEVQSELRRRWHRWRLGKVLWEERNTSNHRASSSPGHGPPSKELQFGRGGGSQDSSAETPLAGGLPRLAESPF
Sequence of human GLP-1 receptor (hGLP-1R) (P43220 24-463): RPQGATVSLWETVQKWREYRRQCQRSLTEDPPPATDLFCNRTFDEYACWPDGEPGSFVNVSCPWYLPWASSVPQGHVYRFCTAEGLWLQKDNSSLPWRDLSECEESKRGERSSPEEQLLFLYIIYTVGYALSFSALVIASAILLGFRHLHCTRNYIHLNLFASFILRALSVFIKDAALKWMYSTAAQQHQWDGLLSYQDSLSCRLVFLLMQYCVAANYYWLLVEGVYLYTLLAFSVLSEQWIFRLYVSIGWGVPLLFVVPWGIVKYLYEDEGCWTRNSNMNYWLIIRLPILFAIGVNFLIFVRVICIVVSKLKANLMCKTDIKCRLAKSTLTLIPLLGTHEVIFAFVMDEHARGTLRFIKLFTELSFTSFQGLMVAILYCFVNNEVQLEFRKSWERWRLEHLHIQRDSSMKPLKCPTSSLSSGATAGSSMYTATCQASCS

Row | EC50 [1] [pM] | % Relative Potency Ratio [1] | EC50 [2] [pM] | Compound
1 | 42.1 | 9.0 | 191 | CC(C)C[C@H](NC(=O)[C@H](Cc1c[nH]c2ccccc12)NC(=O)[C@H](CCC(N)=O)NC(=O)[C@@H](NC(=O)[C@H](Cc1ccccc1)NC(=O)[C@H](CC(=O)O)NC(=O)[C@H](CCC(N)=O)NC(=O)[C@H](C)NC(=O)[C@H](CCCNC(=N)N)NC(=O)[C@H](CCCCNC(=O)COCCOCCNC(=O)COCCOCCNC(=O)CC[C@H](NC(=O)CCCCCCCCCCCCCCCCCCC(=O)O)C(=O)O)NC(=O)[C@@H](NC(=O)[C@H](CC(=O)O)NC(=O)[C@H](CC(C)C)NC(=O)[C@](C)(Cc1ccccc1)NC(=O)[C@H](CCCCN)NC(=O)[C@H](CO)NC(=O)[C@@H](NC(=O)[C@H](CC(=O)O)NC(=O)[C@H](CO)NC(=O)[C@@H](NC(=O)[C@H](Cc1ccccc1)NC(=O)[C@@H](NC(=O)CNC(=O)[C@H](CCC(N)=O)NC(=O)C(C)(C)NC(=O)[C@@H](N)Cc1c[nH]cn1)[C@@H](C)O)[C@@H](C)O)C(C)C)[C@@H](C)O)C(C)C)C(=O)N[C@@H](CC(C)C)C(=O)N[C@@H](CCC(=O)O)C(=O)NC(C)(C)C(=O)N[C@@H](CCCCN)C(N)=O [Peptide 505] (H-H[Aib]QGTFTSDVSK[αMeF]LDTK([AEEA-AEEA-γGlu-C20 diacid])RAQDFVQWLLE[Aib]K-NH2)
2 | 162 | 1.8 | 149 | CC(C)C[C@H](NC(=O)[C@H](Cc1c[nH]c2ccccc12)NC(=O)[C@H](C)NC(=O)[C@@H](NC(=O)[C@H](Cc1ccccc1)NC(=O)[C@H](CC(=O)O)NC(=O)[C@H](CCCNC(=N)N)NC(=O)[C@H](C)NC(=O)[C@H](CCCNC(=N)N)NC(=O)[C@H](CCCCNC(=O)COCCOCCNC(=O)COCCOCCNC(=O)CC[C@H](NC(=O)CCCCCCCCCCCCCCCCCCC(=O)O)C(=O)O)NC(=O)[C@@H](NC(=O)[C@H](CC(=O)O)NC(=O)[C@H](CC(C)C)NC(=O)[C@](C)(Cc1ccccc1)NC(=O)[C@H](CCCCN)NC(=O)[C@H](CO)NC(=O)[C@@H](NC(=O)[C@H](CC(=O)O)NC(=O)[C@H](CO)NC(=O)[C@@H](NC(=O)[C@H](Cc1ccccc1)NC(=O)[C@@H](NC(=O)CNC(=O)[C@H](CCC(N)=O)NC(=O)C(C)(C)NC(=O)[C@@H](N)Cc1c[nH]cn1)[C@@H](C)O)[C@@H](C)O)C(C)C)[C@@H](C)O)C(C)C)C(=O)N[C@@H](CC(C)C)C(=O)N[C@@H](CCC(=O)O)C(=O)NC(C)(C)C(=O)NCC(=O)O [Peptide 506] (H-H[Aib]QGTFTSDVSK[αMeF]LDTK([AEEA-AEEA-γGlu-C20 diacid])RARDFVAWLLE[Aib]G-OH; N-terminus assumed)
3 | 52.9 | 3.2 | 86.6 | CC(C)C[C@H](NC(=O)[C@H](Cc1c[nH]c2ccccc12)NC(=O)[C@H](C)NC(=O)[C@@H](NC(=O)[C@H](Cc1ccccc1)NC(=O)[C@H](CC(=O)O)NC(=O)[C@H](CCCNC(=N)N)NC(=O)[C@H](C)NC(=O)[C@H](CCCNC(=N)N)NC(=O)[C@H](CCCCNC(=O)COCCOCCNC(=O)COCCOCCNC(=O)CC[C@H](NC(=O)CCCCCCCCCCCCCCCCCCC(=O)O)C(=O)O)NC(=O)[C@@H](NC(=O)[C@H](CC(=O)O)NC(=O)[C@H](CC(C)C)NC(=O)[C@](C)(Cc1ccccc1)NC(=O)[C@H](CCCCN)NC(=O)[C@H](CO)NC(=O)[C@@H](NC(=O)[C@H](CC(=O)O)NC(=O)[C@H](CO)NC(=O)[C@@H](NC(=O)[C@H](Cc1ccccc1)NC(=O)[C@@H](NC(=O)CNC(=O)[C@H](CCC(N)=O)NC(=O)C(C)(C)NC(=O)[C@@H](N)Cc1c[nH]cn1)[C@@H](C)O)[C@@H](C)O)C(C)C)[C@@H](C)O)C(C)C)C(=O)N[C@@H](CC(C)C)C(=O)N[C@@H](CCC(=O)O)C(=O)NC(C)(C)C(=O)NCC(N)=O [Peptide 507]
